Columns and labels:
Assay type in all cases: functional
[1] = test system: OVCAR-3; experiment: Cytotoxicity against human OVCAR3 cells assessed as cellular growth at 10 uM by SRB assay
[2] = test system: HL-60(TB); experiment: Cytotoxicity against human HL-60(TB) cells assessed as cellular growth at 10 uM by SRB assay
[3] = test system: U-251; experiment: Cytotoxicity against human U251 cells assessed as cellular growth at 10 uM by SRB assay
[4] = test system: Malme-3M; experiment: Cytotoxicity against human MALME-3M cells assessed as cellular growth at 10 uM by SRB assay
[5] = test system: SNB-19; experiment: Cytotoxicity against human SNB19 cells assessed as cellular growth at 10 uM by SRB assay
[6] = test system: OVCAR-8; experiment: Cytotoxicity against human OVCAR8 cells assessed as cellular growth at 10 uM by SRB assay
[7] = test system: SK-MEL-2; experiment: Cytotoxicity against human SK-MEL-2 cells assessed as cellular growth at 10 uM by SRB assay
[8] = test system: TK-10; experiment: Cytotoxicity against human TK10 cells assessed as cellular growth at 10 uM by SRB assay
[9] = test system: NCI-H460; experiment: Cytotoxicity against human NCI-H460 cells assessed as cellular growth at 10 uM by SRB assay
[10] = test system: SN12C; experiment: Cytotoxicity against human SN12C cells assessed as cellular growth at 10 uM by SRB assay
[11] = test system: A549; experiment: Cytotoxicity against human A549 cells assessed as cellular growth at 10 uM by SRB assay
[12] = test system: A498; experiment: Cytotoxicity against human A498 cells assessed as cellular growth at 10 uM by SRB assay
[13] = test system: UO-31; experiment: Cytotoxicity against human UO31 cells assessed as cellular growth at 10 uM by SRB assay
[14] = test system: IGROV-1; experiment: Cytotoxicity against human IGROV1 cells assessed as cellular growth at 10 uM by SRB assay
[15] = test system: SW-620; experiment: Cytotoxicity against human SW620 cells assessed as cellular growth at 10 uM by SRB assay
[16] = test system: ACHN; experiment: Cytotoxicity against human ACHN cells assessed as cellular growth at 10 uM by SRB assay
[17] = test system: K562; experiment: Cytotoxicity against human K562 cells assessed as cellular growth at 10 uM by SRB assay
[18] = test system: BT-549; experiment: Cytotoxicity against human BT549 cells assessed as cellular growth at 10 uM by SRB assay
[19] = test system: COLO 205; experiment: Cytotoxicity against human COLO205 cells assessed as cellular growth at 10 uM by SRB assay
[20] = test system: NCI-H226; experiment: Cytotoxicity against human NCI-H226 cells assessed as cellular growth at 10 uM by SRB assay

Row | SMILES | Activity [1] [%] | Activity [2] [%] | Activity [3] [%] | Activity [4] [%] | Activity [5] [%] | Activity [6] [%] | Activity [7] [%] | Activity [8] [%] | Activity [9] [%] | Activity [10] [%] | Activity [11] [%] | Activity [12] [%] | Activity [13] [%] | Activity [14] [%] | Activity [15] [%] | Activity [16] [%] | Activity [17] [%] | Activity [18] [%] | Activity [19] [%] | Activity [20] [%]
1 | Cc1ccc(CNC(=O)c2[nH]c3ccccc3c2Cl)cc1 | 95.55 | 113.42 | 92.16 | 116.06 | 105.35 | 99.35 | 99.35 | 124.52 | 88.87 | 99.14 | 96.66 | 69 | 110.2 | 99.38 | 89.73 | 112.34 | 100.85 | 115.69 | 99.99 | 96.65
2 | CC1(C)CCc2cc(-c3ccn(S(=O)(=O)c4cccc(C(F)(F)F)c4)n3)ccc2O1 | 101.58 | 72.67 | 81.96 | 102.22 | 103.83 | 93.92 | 107.75 | 82.31 | 90 | 91.59 | 80.37 | 94.88 | 97.36 | 109.7 | 88.93 | 109.2 | 63.16 | 119.64 | 123.8 | 90.51
3 | c1ccc(-c2nc(-c3cccs3)no2)cc1 | 105.28 | 103.76 | 94.72 | 131.39 | 108.69 | 105.37 | 103.18 | 97.25 | 102.91 | 91.08 | 106.51 | 96.9 | 88.86 | 83.5 | 101.1 | 102.77 | 100.51 | 105.93 | 114.24 | 91.26
4 | O=C(Nc1nc2ccc(Cl)cc2s1)c1ccc(Cl)cc1 | 112.95 | 100.76 | 94.55 | 110.45 | 125.32 | 98.61 | 111.04 | 131.87 | 98.55 | 122.51 | 94.26 | 94.69 | 97.6 | 119.2 | 103.76 | 96.94 | 96.27 | 106.78 | 105.29 | 84.73
5 | O=C(Nc1nc2ccc(Cl)cc2s1)c1ccc(Cl)cc1Cl | 109.17 | 92.55 | 93.57 | 109.41 | 109.5 | 97.79 | 116.07 | 88.34 | 100.4 | 113.76 | 95.4 | 93.8 | 101 | 103.26 | 111.18 | 109.65 | 86.31 | 111.68 | 114.96 | 101.52
6 | COc1cccc(C(=O)Nc2nc3ccc(Cl)cc3s2)c1 | 100.09 | 68.73 | 87.76 | 95.69 | 113.6 | 98.65 | 108.68 | 88.7 | 87.74 | 101.74 | 74.01 | 86.56 | 92.38 | 74.3 | 88.38 | 91.34 | 49 | 101.44 | 105.5 | 93.47
7 | Cc1ccc(NC(=O)c2sc3nc(-c4cccs4)ccc3c2N)cc1C | 98.63 | 82.68 | 101.86 | 118.51 | 111.2 | 102.12 | 82.1 | 87 | 98.65 | 100.59 | 96.75 | 88.5 | 126.96 | 117.67 | 101.23 | 125.53 | 90.31 | 133.54 | 112.33 | 107.93
8 | COc1ccc(S(=O)(=O)n2ccc(-c3ccc4c(c3)CCC(C)(C)O4)n2)cc1 | 81.18 | 60.02 | 84.18 | 109.7 | 87.12 | 83.81 | 84.41 | 68.22 | 75.37 | 97.48 | 73.96 | 89.14 | 78.12 | 90.82 | 90.28 | 104.15 | 55.64 | 65.47 | 107.28 | 71.38
